# Reference: EPA's ToxValDB 9.5 (doi:10.2903/j.efsa.2009.194r)
# Experiments:
# Colinus virginianus = conditions: for LD50: acute, oral, mortality
# Rattus norvegicus = conditions: for NOAEL: hematological
# Tagia sp. = conditions: acute; duration: 14 days; mortality
# Apis mellifera = conditions: acute; duration: 48 hours; dermal; mortality
# Lepomis macrochirus = conditions: acute; duration: 96 hours; mortality
# Typhlodromus pyri = conditions: chronic/long-term
# Daphnia magna = conditions: chronic/long-term; duration: 21 days; reproduction
# Aphidius rhopalosiphi = conditions: chronic/long-term
# Canidae = conditions: chronic; duration: 1 years; oral; Dog Other; hematological
# Pimephales promelas = conditions: chronic/long-term; duration: 36 days; growth
smiles,measurement,setting,value
O=C(NC(=O)c1ccccc1Cl)Nc1ccc(OC(F)(F)F)cc1 [Triflumuron],LD50,Colinus virginianus; diet,> 805 mg/kg-day
same,LD50,Colinus virginianus,561 mg/kg-day
same,NOEC,Colinus virginianus; reproduction developmental,1.65 mg/kg-day
same,LD50,"Rattus norvegicus; acute, oral, mortality",> 5000 mg/kg-day
same,NOEC,Rattus norvegicus; chronic,142 mg/kg-day
same,NOAEL,"Rattus norvegicus; chronic, duration: 2 years",0.82 mg/kg-day
same,NOAEL,"Rattus norvegicus; subchronic, duration: 90 days, oral",3.6 mg/kg-day
same,LC50,Tagia sp.,> 500 mg/kg
same,LD50,Apis mellifera,> 200 µg/piece
same,LC50,Lepomis macrochirus,> 0.0208 µg/mL
same,LEL,"Typhlodromus pyri; duration: 7 days, mortality",384 g/ha
same,LEL,Typhlodromus pyri; reproduction,384 g/ha
same,NOEC,Daphnia magna,3.2e-05 mg/L
same,LEL,Aphidius rhopalosiphi; mortality,300 g/ha
same,LEL,Aphidius rhopalosiphi; reproduction,300 g/ha
same,NOAEL,Canidae,1.42 mg/kg-day
same,NOEC,Pimephales promelas,≥ 0.0228 mg/L
